Assay results from the Bradley open melting point set (2014).
Values joined by “and” are separate entries in the source; they are usually repeats but may differ in a detail not shown here. Equal values may be shown once.

melting point | SMILES
140 °C | Cc1ccc(N2C(=O)C=CC2=O)cc1Cl [1-(3-Chloro-4-methylphenyl)-1H-pyrrole-2,5-dione]
83 °C | O=C(c1ccccc1)c1cccc(Cl)c1 [3-chlorobenzophenone]
135 °C | CCOc1ccc(NC(C)=O)cc1 [4-ethoxyacetanilide]
172 °C | CC(=O)Nc1ccc(/C=C/c2ccc(NC(C)=O)cc2)cc1 [N,N'-[(E)-ethene-1,2-diyldibenzene-4,1-diyl]diacetamide]
54 °C | CC(C)(C)CO [neopentyl alcohol]
190 °C | CSC1N=NC(N)=C1C#N (centres undefined) [1H-pyrazole-4-carbonitrile, 3-amino-5-(methylthio)-]
84 °C | O=C1c2ccccc2-c2ccccc21 [9-fluorenone]
106 °C | CC1=CC(=O)c2ccccc2C1=O [2-methyl-1,4-naphthoquinone]
-138 °C | CC/C=C\CC [cis-3-hexene]
-21 °C | CCC(=O)O [propanoic_acid]
5 °C | c1ccc(C2CCCCC2)cc1 [Cyclohexylbenzene]
68 °C | COc1ccccc1CC#N [2-methoxyphenylacetonitrile]
174 °C | O=C(Nc1ccccc1)OC1CCCCCC1OC(=O)Nc1ccccc1 (centres undefined) [cycloheptane-1,2-diyl bis(phenylcarbamate)]
199 °C | OCc1ccccc1OC1OC(CO)C(O)C(O)C1O (centres undefined) [2-(Hydroxymethyl)phenyl hexopyranoside]
18 °C | CCCCCCCCCCCCCCCC [N-hexadecane]
172 °C | Cc1cc(C(=O)O)no1 [5-methylisoxazole-3-carboxylic acid]
27 °C | COc1ccc(C)cc1OC [3,4-dimethoxytoluene]
49 °C | N#Cc1cccc(-c2ccccc2)c1 [m-cyanobiphenyl]

melting point | SMILES
61 °C | C1CCCCCCCCCCC1 [Cyclododecane]
283 °C | O=C(O)c1cc(C(=O)O)c(C(=O)O)cc1C(=O)O [pyromellitic acid]
247 °C | O=C(O)/C=C/c1ccccc1[N+](=O)[O-] [trans-2-nitrocinnamic acid]
140 °C | O=C(O)c1ccc(Br)s1 [5-bromothiophene-2-carboxylic acid]
83 °C | c1ccc(N=Nc2ccc(Nc3ccccc3)cc2)cc1 [4-phenylazodiphenylamine]
187 °C | COc1cc(O)c2c(=O)c(OC3OC(CO)C(O)C(O)C3OC3OC(C)C(O)C(O)C3O)c(-c3ccc(O)c(O)c3)oc2c1 (centres undefined)
-137 °C | CCCC(C)Cl (centres undefined) [2-chloropentane]
272 °C | OB(O)c1ccc(Cl)c(Cl)c1 [3,4-dichlorobenzeneboronic acid]
142 °C | Cc1n[nH]cc1-c1ccccc1 [3-methyl-4-phenyl-1h-pyrazole]
72 °C | COc1cc(Cl)nc(OC)n1 [6-chloro-2,4-dimethoxypyrimidine]
83 °C | COc1ccc(Cl)cc1N [5-chloro-o-anisidine]
194 °C | CC(=O)C1=C2C=CCC=C2N=C1 [3-Acetylindole]
11 °C | CCCCCCCCCCCO [Undecan-1-ol]
28 °C | COC(=O)/C(=C\c1ccccc1)Cc1ccccc1 [methyl (2Z)-2-benzyl-3-phenylprop-2-enoate]
-78 °C | C[Si](C)(C)N[Si](C)(C)C [hexamethyldisilazane]
53 °C | COc1ccc(/C(C)=C/C(C)=O)cc1 [(3E)-4-(4-methoxyphenyl)pent-3-en-2-one]
192 °C | NC(=O)c1cnccn1 [Pyrazinamide]

The remaining lines, values behind:

SMILES | melting point
C=CC(=O)OC [methyl acrylate] | -75 °C
N#Cc1ccc([N+](=O)[O-])cc1 [p-nitrobenzonitrile] | 149 °C
O=Cc1ccc(N2CCCC2)c([N+](=O)[O-])c1 [3-nitro-4-(1-pyrrolidinyl)benzaldehyde] | 103 °C
CC(=O)C1=CCC2(C)C(CCC3C4CCC(=O)C4(C)CCC32)C1 (centres undefined) [3-acetylandrost-2-en-17-one] | 153 °C
C [Methane] | -182 °C
O=[N+]([O-])c1c(Cl)c(Cl)cc(Cl)c1Cl [2,3,5,6-Tetrachloronitrobenzene] | 99.5 °C
O=C(O)CC(O)(CC(=O)O)C(=O)O [citric acid, anhydrous] | 154 °C
CS(=O)(=O)OS(C)(=O)=O [methanesulfonic anhydride] | 67 °C
O=C(O)C(=O)CBr [bromopyruvic acid] | 78 °C
Cc1ccc(C#N)cc1C [3,4-dimethylbenzonitrile] | 66 °C
ClC(Cl)(Cl)C(Cl)(Cl)Cl [Hexachloroethane] | 192 °C
Nc1ccc(-c2ccc3nn(-c4ccccc4)nc3c2)cc1 [4-(2-phenyl-2H-benzotriazol-5-yl)aniline] | 143 °C
O=C(O)c1cc(I)cc(I)c1I [2,3,5-triiodobenzoic acid] | 221 °C
CC(=O)Oc1ccccc1C(=O)O [2-Acetoxybenzoic acid] | 139 °C
CCCCCCCCCCCCCCCCCC(=O)OCC [ethyl stearate] | 35 °C
CCCCCN [1-pentylamine] | -55 °C
Oc1cccc(Cl)c1 [3-chlorophenol] | 32.5 °C
O=C1C=CC(=O)c2ccccc21 [1,4-naphthoquinone] | 122 °C
COC(=O)c1ccc2c(c1)CC1(CCC(c3ccc(C(C)(C)C)cc3)CC1)C2 (centres undefined) | 117 °C
ClC1=C(Cl)C2(Cl)C3C4CC(C5OC45)C3C1(Cl)C2(Cl)Cl (centres undefined) [Dieldrin] | 175 °C

SMILES | melting point
SCc1ccccc1 [benzyl mercaptan] | -29 °C and -29.2 °C
O=C(NCc1ccccc1)OCCO [buramate] | 40 °C
COc1ccc2c(c1)[nH]c1c(C)nccc12 [harmine] | 264 °C
CCCCCC=O [hexanal] | -56 °C
NC(=O)c1ccc(-c2ccccc2)cc1 [biphenyl-4-carboxamide] | 228 °C
N#CCCCCCCC#N [1,6-dicyanohexane] | -3 °C
CN1C(=O)c2ccccc2C1C1=COCCC1 (centres undefined) [3-(3,4-Dihydro-2H-pyran-5-yl)-2-methylisoindolin-1-one] | 95.5 °C
O=C2\C=C(/N(N2c1ccccc1)C)C [antipyrine] | 111 °C and 112 °C and 109 °C
O=C(O)c1ccc([N+](=O)[O-])cc1Cl [2-chloro-4-nitrobenzoic acid] | 142 °C
O=C(O)Cc1ccccc1 [phenylacetic acid] | 77.5 °C and 76.7 °C and 77 °C
COc1ccc2cc(C(C)O)ccc2c1 (centres undefined) [1-(6-methoxy-2-naphthyl)ethanol] | 112 °C
CC12CCC(/C(=C/N(Cl)c3ccccc3)C1=O)C2(C)C (centres undefined) | 103 °C
CCN(CC)c1ccccc1 [N,N-Diethylaniline] | -38 °C
Oc1cccc(Cl)c1 [m-chlorophenol] | 34 °C
COCCOC [1,2-Dimethoxyethane] | -58 °C
CC[SiH2]CC [diethylsilane] | -132 °C
CCCCCC(=O)O [Hexanoic acid] | -3 °C
Nc1c(Br)cccc1Br [2,6-dibromoaniline] | 81 °C
CCCNC(=O)NS(=O)(=O)c1ccc(Cl)cc1 [Chlorpropamide] | 128 °C
